Measured values published in US7014990B2, “Machine perfusion solution for organ and biological tissue preservation” (priority 2000, dated 2006).

Assay type: physicochemical
Protocol: A machine perfusion solution of the invention may be prepared by combining the components described above with sterile water, such as distilled and/or deionized water. For example, to prepare the solution, approximately 700–900 mL, or preferably about 800 mL, of sterile water is poured into a one liter beaker at approximately room temperature. Although a one liter beaker is used in this example, any other container of any size may be used to prepare the solution, where the component amounts would be adjusted accordingly. In the most preferred embodiment, the following are added, in any order, to the solution and each is mixed until dissolved in the solution: approximately […] sodium gluconate, approximately […] potassium phosphate, approximately […] adenine, approximately […] of ribose, approximately […] of calcium chloride, and approximately 50 g modified pentastarch. The modified pentastarch is a fractionated colloid mixture of 40–60 kDaltons in diameter and is modified by infusing the pentastarch under 3 atm of pressure through a dialyzing filter with a bore size of about 40–60 kDaltons. About […] magnesium gluconate, approximately […] HEPES, approximately […] glucose, and approximately […] mannitol are also added, in any order, and mixed. Approximately 40 U of insulin is also added. […]

half-life lengthened by a multiple: about 15
Compound: CCCCC[C@H](O)/C=C/[C@H]1[C@H](O)CC(=O)[C@@H]1CCCCCCC(=O)O [modified PGE1, prostaglandin E1]
